Data taken from article PMC9523973 (Cell reports, 2022).
pIC50: −log10 of the molar value. “Also recorded” adds a separate entry of the source. Like-named read-outs stand apart in the source and are kept apart here.

Tests used:
[1] = target: human NaV1.7 tamoxifen receptor (Homo sapiens, UniProt Q15858); experiment: NaV1.7 tritium-labeled tamoxifen competitive binding assay; conditions: competition with H^3-Tam
human NaV1.7 = human NaV1.7 (Homo sapiens, UniProt Q15858); experiment: Voltage clamp of expressed WT NaV1.7 INa
[2] = system: endogenously expressed NaVs in cultured DRG neurons; experiment: Whole cell voltage clamp of sodium current; type: cell-based, mouse; conditions: for pIC50: read-out: IC50 of DRG INa inhibition
[3] = system: knee hyperalgesia in mice after DMM surgery; experiment: In vivo osteoarthritis pain model; design: species or system mouse; conditions: for knee hyperalgesia vs vehicle, 30 minutes after injection / knee withdrawal threshold vs vehicle through 3 hours: 50 μM intra-articular in 0.1% DMSO
[4] = system: NaV1.7 DII S969A and DIV D1761A; type: cell-based, human; conditions: vs WT NaV1.7
NaV1.7 F1748A and Y1755A = experiment: Voltage clamp of NaV1.7 local anesthetic binding site mutations; type: cell-based, human; conditions: vs WT NaV1.7
DRG action potentials = experiment: Current clamp recording of cultured DRG neuron action potentials; type: cell-based, mouse
[5] = system: NaV1.7 S969A:D1761A double mutant; type: cell-based, human
[6] = target: NaV1.7 S969A:D1761A double mutant (Homo sapiens, UniProt Q15858, E1761A/S969A); type: cell-based; conditions: read-out: IC50 of INa inhibition, S969A:D1761A double mutant channels
NaV1.7 D1458A = NaV1.7 D1458A (Homo sapiens, UniProt Q15858, D1458A); experiment: Voltage clamp of NaV1.7 alanine substitution in domain III; type: cell-based; conditions: vs WT NaV1.7
[7] = system: knee hyperalgesia in mice after DMM surgery; conditions: 20 mg/kg, ~0.85M, ref Miller et al., 2018; cited from earlier work

human NaV1.7 tamoxifen receptor, sequence (Q15858 whole entry): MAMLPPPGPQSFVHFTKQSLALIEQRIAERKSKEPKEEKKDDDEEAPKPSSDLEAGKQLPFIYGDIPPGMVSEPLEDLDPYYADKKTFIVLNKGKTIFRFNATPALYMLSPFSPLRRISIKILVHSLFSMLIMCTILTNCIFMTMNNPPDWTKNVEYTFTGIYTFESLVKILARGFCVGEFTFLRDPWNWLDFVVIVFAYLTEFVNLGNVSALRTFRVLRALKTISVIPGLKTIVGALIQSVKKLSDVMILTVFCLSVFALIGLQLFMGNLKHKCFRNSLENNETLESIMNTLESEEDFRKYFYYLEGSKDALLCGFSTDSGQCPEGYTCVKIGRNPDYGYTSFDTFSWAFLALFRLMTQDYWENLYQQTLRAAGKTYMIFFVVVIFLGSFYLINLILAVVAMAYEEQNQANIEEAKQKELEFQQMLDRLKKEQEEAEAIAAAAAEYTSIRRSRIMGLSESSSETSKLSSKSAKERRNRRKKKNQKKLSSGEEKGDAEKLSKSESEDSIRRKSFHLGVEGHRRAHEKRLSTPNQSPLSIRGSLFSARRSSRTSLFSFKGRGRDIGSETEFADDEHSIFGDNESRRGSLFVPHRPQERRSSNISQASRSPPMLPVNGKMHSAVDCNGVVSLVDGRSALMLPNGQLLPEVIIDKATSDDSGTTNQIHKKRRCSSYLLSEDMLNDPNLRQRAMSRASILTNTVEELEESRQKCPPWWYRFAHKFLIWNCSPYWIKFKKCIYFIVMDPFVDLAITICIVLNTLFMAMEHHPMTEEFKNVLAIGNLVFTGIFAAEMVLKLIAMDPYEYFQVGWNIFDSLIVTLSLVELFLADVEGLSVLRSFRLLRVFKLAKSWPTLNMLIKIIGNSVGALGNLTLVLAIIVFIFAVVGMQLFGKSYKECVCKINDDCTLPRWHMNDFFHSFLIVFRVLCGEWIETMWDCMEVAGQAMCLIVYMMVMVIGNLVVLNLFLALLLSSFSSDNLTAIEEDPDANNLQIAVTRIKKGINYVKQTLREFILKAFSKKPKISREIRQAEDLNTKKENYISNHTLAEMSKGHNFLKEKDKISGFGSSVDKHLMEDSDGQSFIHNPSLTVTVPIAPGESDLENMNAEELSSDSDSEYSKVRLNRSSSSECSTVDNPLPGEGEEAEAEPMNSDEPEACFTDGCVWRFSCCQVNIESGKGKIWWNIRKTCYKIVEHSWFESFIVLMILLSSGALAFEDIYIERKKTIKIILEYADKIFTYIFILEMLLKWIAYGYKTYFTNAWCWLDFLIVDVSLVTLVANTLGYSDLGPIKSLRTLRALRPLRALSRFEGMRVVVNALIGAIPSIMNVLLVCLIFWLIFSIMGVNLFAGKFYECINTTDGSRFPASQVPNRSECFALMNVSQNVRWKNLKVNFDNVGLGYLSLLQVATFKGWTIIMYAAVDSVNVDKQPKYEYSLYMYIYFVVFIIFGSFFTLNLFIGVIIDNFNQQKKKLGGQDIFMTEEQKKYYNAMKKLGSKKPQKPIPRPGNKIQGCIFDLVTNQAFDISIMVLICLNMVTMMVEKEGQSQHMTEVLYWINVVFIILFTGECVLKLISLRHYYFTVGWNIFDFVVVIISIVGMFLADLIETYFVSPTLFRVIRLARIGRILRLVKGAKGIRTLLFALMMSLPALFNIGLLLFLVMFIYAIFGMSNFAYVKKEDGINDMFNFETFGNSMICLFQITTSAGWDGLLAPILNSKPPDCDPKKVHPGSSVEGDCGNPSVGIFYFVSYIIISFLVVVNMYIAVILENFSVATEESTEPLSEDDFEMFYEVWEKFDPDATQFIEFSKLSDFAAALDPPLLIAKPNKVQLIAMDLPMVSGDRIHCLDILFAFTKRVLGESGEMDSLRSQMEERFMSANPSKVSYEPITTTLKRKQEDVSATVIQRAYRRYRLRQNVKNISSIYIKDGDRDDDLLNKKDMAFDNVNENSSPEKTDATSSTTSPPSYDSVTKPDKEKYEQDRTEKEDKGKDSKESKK
human NaV1.7, sequence (Q15858 whole entry): as above
human NaV1.7, sequence (Q07699 19-218 partner): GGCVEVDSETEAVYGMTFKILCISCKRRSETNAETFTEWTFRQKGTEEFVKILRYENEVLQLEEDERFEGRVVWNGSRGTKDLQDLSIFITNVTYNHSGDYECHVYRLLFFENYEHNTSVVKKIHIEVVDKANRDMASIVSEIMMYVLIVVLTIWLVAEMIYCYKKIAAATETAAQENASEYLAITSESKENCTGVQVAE
NaV1.7 S969A:D1761A double mutant (Homo sapiens, UniProt Q15858, E1761A/S969A), sequence (Q15858 whole entry S969A/E1761A, the tested form may be a part): as the sequence (Q15858 whole entry) above, with S969A, E1761A counted along it
NaV1.7 S969A:D1761A double mutant (Homo sapiens, UniProt Q15858, E1761A/S969A), sequence (Q07699 19-218 partner): as the sequence (Q07699 19-218 partner) above
NaV1.7 D1458A, sequence (Q15858 whole entry D1458A, the tested form may be a part): as the sequence (Q15858 whole entry) above, with D1458A counted along it
NaV1.7 D1458A, sequence (Q07699 19-218 partner): as the sequence (Q07699 19-218 partner) above

Question: For “4-hydroxy-N-desmethyl benzophenone [4OH-ND-BP]”, which “binding to NaV1.7 (in words)” value [1] is on record?
Answer: specific binding

Question: With O=C(c1ccccc1)c1ccc(O)cc1 [4OH-BP, 4-hydroxy benzophenone] as the compound, how does the “binding to NaV1.7 (in words)” value [1] read?
Answer: specific binding

Question: Which results are given for CC/C(=C(\c1ccc(O)cc1)c1ccc(OCCN(C)C)cc1)c1ccccc1 [4OH-Tam, 4-hydroxy tamoxifen]?
Answer: Hill slope coefficient of NaV1.7 INa inhibition (human NaV1.7): 1.9; inhibition of DRG neuron INa (in words) [2]: inhibit DRG neuron INa

Question: Which results are given for C=C(C)[C@@H]1CCC(C)=C[C@H]1c1c(O)cc(CCCCC)cc1O [CBD, cannabidiol, reference compound]?
Answer: knee hyperalgesia vs vehicle, 30 minutes after injection ([3]; 4 weeks after DMM): effectively inhibited knee hyperalgesia; knee withdrawal threshold vs vehicle through 3 hours ([3]; 4 weeks after DMM): remained elevated compared to vehicle control

Question: Which “reduced potency of INa inhibition” value [4] does the source give for CC/C(=C(\c1ccccc1)c1ccc(OCCNC)cc1)c1ccccc1 [ND-Tam, N-desmethyl tamoxifen] here?
Answer: 3–7 times

Question: What about the “change in ND-Tam potency” value (NaV1.7 F1748A and Y1755A) of the same compound?
Answer: little change

Question: And the “Hill slope coefficient of NaV1.7 INa inhibition” value (human NaV1.7)?
Answer: 2.2

Question: What about the pIC50 (human NaV1.7; read-out: IC50 of INa inhibition, WT NaV1.7) of the same compound?
Answer: 5.77

Question: And the “inhibition of DRG neuron INa (in words)” value [2]?
Answer: inhibit DRG neuron INa

Question: What about the “frequency dependence of DRG INa inhibition” value ([2]; 300 nM at 0.1, 10 and 20 Hz) of the same compound?
Answer: enhanced current inhibition at greater depolarization frequencies

Question: And the “block of the total INa” value ([2]; 1 μM)?
Answer: ≈ 45%

Question: And the “change in half-maximal activation of conductance (GV1/2)” value ([2]; 1 μM)?
Answer: no change

Question: And the “voltage-dependence of inactivation after drug treatment” value ([2]; 1 μM)?
Answer: −51.9 ± 0.4 mV

Question: What about the “half-maximal conductance-voltage relationship (V1/2)” value ([2]; 1 μM ND-Tam conditions) of the same compound?
Answer: −37.7 ± 0.4 mV

Question: What about the pIC50 ([2]; −40 mV holding potential) of the same compound?
Answer: 8.41

Question: And the pIC50 ([2]; −60 mV holding potential)?
Answer: 6.95

Question: And the “INa that did not recover after removing drug from the bath” value ([2]; waiting 5 minutes after removal)?
Answer: 86 ± 5%

Question: What about the “impact on the resting membrane potential” value (DRG action potentials; 100 nM, spontaneously firing neurons) of the same compound?
Answer: insignificant impact

Question: And the “reduction of the frequency of spontaneous action potentials” value (DRG action potentials; 100 nM, three-minute extracellular application, no current injected)?
Answer: 91%

Question: And the “inhibition of action potential frequency and peak amplitude after washout” value (DRG action potentials; control saline for 2 minutes after drug)?
Answer: persistent

Question: And the “potency reduction compared to WT NaV1.7” value [5]?
Answer: more than 21 times

Question: What about the pIC50 [6] of the same compound?
Answer: 4.44

Question: And the “change in potency or slope” value (NaV1.7 D1458A)?
Answer: no change in potency or slope

Question: What about the “area under the curve analysis of the first 3.5 hours post injection” value ([3]; 0.5 μM, after 3rd daily injection, compared to lidocaine or vehicle) of the same compound?
Answer: superior efficacy

Question: What about the “knee hyperalgesia vs vehicle” value ([3]; 50 μM (~0.002 mg/kg) intra-articular, vehicle 50% EtOH, 4 weeks after DMM, 30 minutes after injection) of the same compound?
Answer: rapidly inhibited knee hyperalgesia pain; also recorded: provided relief from hyperalgesia

Question: What about the “knee hyperalgesia vs vehicle, 30 minutes after injection” value ([3]; 4 weeks after DMM) of the same compound?
Answer: effectively inhibited knee hyperalgesia

Question: What about the “knee withdrawal threshold vs vehicle through 3 hours” value ([3]; 4 weeks after DMM) of the same compound?
Answer: remained elevated compared to vehicle control

Question: With CNCCOc1ccccc1 [NM2P, N-methyl 2 phenoxyethanamine] as the compound, how does the “binding to NaV1.7 (in words)” value [1] read?
Answer: specific binding

Question: What does the source list for CCN(CC)CC(=O)Nc1c(C)cccc1C [lidocaine, reference compound]?
Answer: knee hyperalgesia after local injection of a high dose [7]: able to acutely reverse knee hyperalgesia; knee hyperalgesia vs vehicle, 30 minutes after injection ([3]; 4 weeks after DMM): effectively inhibited knee hyperalgesia; knee withdrawal threshold vs vehicle through 3 hours ([3]; 4 weeks after DMM): remained elevated compared to vehicle control
